In publication PMC8200971, “Design, Synthesis, Biological Evaluation and Silico Prediction of Novel Sinomenine Derivatives” (Molecules, 2021):

Key:
[1] = test system: HepG2 (human hepatocellular carcinoma cell lines); assay: MTT assay, growth inhibition; type: cell-based; conditions: HepG2, 20 μM, 24 h
Experimental: (§1) The in vitro growth inhibitory activity of the sinomenine derivatives (5a–5k) was evaluated against different three cell lines, MCF-7, Hela, and HepG2, using sinomenine as the reference compound kept under the same conditions in an MTT assay. The inhibition ratios of synthetic compounds were determined at concentrations of 2, 20 and 200 μM.
(§2) The MCF-7 (human breast cancer cell lines), Hela (human cervical cancer cells lines), and HepG2 (human hepatocellular carcinoma cell lines) cells were used to measure the cytotoxicity of the 5a–5k series, which were provided by the Academy of Military Medical Sciences (Beijing, China). The cell lines were maintained on RPMI 1640 nutrient medium supplemented with 10% heat-inactivated fetal bovine serum, 1% L-glutamine, […] and 100 units/mL penicillin. The cells were grown at 37 °C in a humidified atmosphere with 5% CO2 and were subcultured two to three times a week.
(§3) The MTT (3-(4, 5-dimethyl thiazol-2-yl)-2, 5-diphenyl tetrazolium bromide) assay with a slight modification was used to determine the inhibition effects of substrates 5a–5k. MCF-7, Hela and HepG2 were used for testing. Briefly, cells (5.0 × 10^3 cells per well) were seeded in 100 μL of the RPMI-1640 medium in 96-well plates for 24 h, treated with drugs and complete medium in wells up to 200 μL for 24 h. RPMI-1640 samples were employed as negative controls, and cisplatin as a positive control. Four quadruplicates of each concentration for all tested compounds were evaluated in three independent assays. For this, after removing the drug containing media 100 μL, 10 μL of MTT solution was added to wells and incubated for 4 h under similar conditions. After that, the supernatant from each well was removed and the formazan crystals formed by viable cells were dissolved with DMSO (100 μL/well). At the end of incubation, optical densities at 570 nm were measured using a plate reader (BIO-TEK, USA). Cell viability was calculated based on the measured absorbance relative to the absorbance of the cells exposed to the negative control, which represented 100% cell viability.

[2] = test system: Hela (human cervical cancer cells lines); assay: MTT assay, growth inhibition; type: cell-based; conditions: 20 μM, 24 h
Experimental: as §1, §2, §3

[3] = test system: MCF-7 (human breast cancer cell lines); assay: MTT assay, growth inhibition; type: cell-based; conditions: MCF-7, 20 μM, 24 h
Experimental: as §1, §2, §3

[4] = test system: Hek293 (human embryonic kidney cell lines); assay: CCK8 cytotoxicity assay, normal cells; type: cell-based; conditions: Homo sapiens, HEK293, 60 h, read-out: growth inhibition ratio (mean ± SD)
Experimental: (§4) Cytotoxicity screens were performed to assess the in vitro anticancer activity of the synthesized sinomenine derivatives 6a–6l on the various cancer cell lines MCF-7, Hela, SW480, and A549, as well as on Hek293 as a normal cell line, at doses of 2.5 and 25 μM. The obtained inhibition ratios data were used to construct a heat map (Figure 3, Tables S1 and S2) in order to select compounds that exert cancer cell line-specific cytotoxicity. Then, the IC50 values of the promising compound were determined. Cisplatin was used as a reference standard. The antiproliferative activity was based on the evaluation of the percent viability using the CCK8 assay, which is a rapid and sensitive method for determining the number of viable cells in culture. In the presence of electronic coupling reagents, WST-8 can be reduced by a dehydrogenase in the mitochondria to produce a highly water-soluble orange-yellow formazan product. Its color is proportional to the proliferation of the number of viable cells and is related to cytotoxicity. Using a microplate reader to measure the OD value can indirectly reflect the number of living cells at 450 nm wavelength.
(§5) To understand structure–function relationships, these selected compounds were subjected to subsequent analyses. All six compounds (6a and 6c–6g) were further examined to determine their IC50 concentrations on the previously mentioned cell lines, and their efficacy was compared to the reference drug cisplatin. For this, six compounds and cisplatin were evaluated on Hela, MCF-7, SW480, and A549, and on noncancerous Hek293 cell lines at various concentrations for 60 h. IC50 values were calculated (Table 2).
(§6) The MCF-7 (human breast cancer cell lines), Hela (human cervical cancer cell lines), SW480 (human colon adenocarcinoma cell lines), A549 (human lung adenocarcinoma cell lines) and nontoxic normal cells Hek293 (human embryonic kidney cell lines) cells were used to measure the cytotoxicity of the 6a–6l. They were obtained from the Beijing Normal University (Beijing, China). The test cell lines were cultured in DMEM, IMDM, F12 and DMEM nutrient medium containing 10% heat-inactivated fetal bovine serum, […] and 100 units/mL penicillin in a humified, 5% (v/v) CO2 atmosphere at 37 °C.
(§7) Cell viability was estimated using the CCK8 assay. Tumor cells ([…]) viz. MCF-7, Hela, SW480, A549 and nontoxic normal cells Hek293 were seeded in medium containing Corning® 96-well tissue culture plates at confluences of […], respectively, in Incucyte ZOOM. Fresh medium (100 μL) containing different concentrations of the test sample was added after 12 h of seeding. The microtiter plates were incubated at 37 °C in a humidified incubator with 5% CO2 for 60 h. Triplicates from each concentration were used. Negative control cells were incubated without sample and cisplatin as a positive control. At the end of treatment, the numbers of viable cells were determined by the CCK8 test. In brief, the media was removed from the 96 well plates and replaced with 100 μL of fresh culture medium with 10% CCK8 solution added to each well including the untreated controls. The 96 well plates were then incubated at 37 °C and 5% CO2 for 1–4 h. Then, the absorbance was measured at 450 nm using a BMG LABTECH®-POLAR star Omega microplate reader (Ortenberg, Germany) to determine the number of viable cells, and the percentage of viability was calculated as ((ODt- ODb/ODc- ODb)) × 100%, where ODt is the mean optical density of wells treated with the tested sample, ODc is the mean optical density of wells treated with DMSO and ODb is the mean optical density of PBS wells without cells. The relation between surviving cells and drug concentrations were plotted to get the survival curve of each tumor cell line after treatment with the specified compound. […]

[5] = test system: SW480 (human colon adenocarcinoma cell lines); assay: CCK8 cytotoxicity assay; type: cell-based; conditions: Homo sapiens, SW480, 60 h, read-out: growth inhibition ratio (mean ± SD)
Experimental: as §4, §5, §6, §7

[6] = test system: A549 (human lung adenocarcinoma cell lines); assay: CCK8 cytotoxicity assay; type: cell-based; conditions: Homo sapiens, A549, 60 h, read-out: growth inhibition ratio (mean ± SD)
Experimental: as §4, §5, §6, §7

[7] = test system: MCF-7 (human breast cancer cell lines); assay: CCK8 cytotoxicity assay; type: cell-based; conditions: Homo sapiens, MCF7, 60 h, read-out: growth inhibition ratio (mean ± SD)
Experimental: as §4, §5, §6, §7

[8] = test system: Hela (human cervical cancer cell lines); assay: CCK8 cytotoxicity assay; type: cell-based; conditions: Homo sapiens, HeLa, 60 h, read-out: growth inhibition ratio (mean ± SD)
Experimental: as §4, §5, §6, §7

## COC1=C[C@@H]2[C@@H]3Cc4c(CN5CCCCC5)cc(OC)c(OC(=O)Cc5cccc(Cl)c5)c4[C@]2(CCN3C)CC1=O [5g, (4bR,8aS,9S)-3,7-dimethoxy-11-methyl-6-oxo-1-(piperidin-1-ylmethyl)-6,8a,9,10-tetrahydro-5H-9,4b-(epiminoethano)phenanthren-4-yl 2-(3-chlorophenyl)acetate]
other
  melting point: 164 to 167 °C
[1]
  inhibition ratio: more than 53.2%

## COC1=C[C@@H]2[C@@H]3Cc4c(CN5CCCCC5)cc(OC)c(OC(=O)Cc5ccc(Cl)cc5Cl)c4[C@]2(CCN3C)CC1=O [5i, (4bR,8aS,9S)-3,7-dimethoxy-11-methyl-6-oxo-1-(piperidin-1-ylmethyl)-6,8a,9,10-tetrahydro-5H-9,4b-(epiminoethano)phenanthren-4-yl 2-(2,4-dichlorophenyl)acetate]
other
  melting point: 135 to 137 °C
[2]
  inhibition ratio: 94.43%
[1]
  inhibition ratio: 90.69%
[3]
  inhibition ratio: 54.13%

## COC1=C[C@@H]2[C@@H]3Cc4c(CN5CCCCC5)cc(OC)c(OC(=O)Cc5ccc(Cl)c(Cl)c5)c4[C@]2(CCN3C)CC1=O [5j, (4bR,8aS,9S)-3,7-dimethoxy-11-methyl-6-oxo-1-(piperidin-1-ylmethyl)-6,8a,9,10-tetrahydro-5H-9,4b-(epiminoethano)phenanthren-4-yl 2-(3,4-dichlorophenyl)acetate]
other
  melting point: 143 to 146 °C
[2]
  inhibition ratio: 80.22%
[1]
  inhibition ratio: 89.57%
[3]
  inhibition ratio: 63.35%

## COC1=C[C@@H]2[C@@H]3Cc4c(CN5CCCC5)cc(OC)c(OC(=O)Cc5ccc(OC)cc5)c4[C@]2(CCN3C)CC1=O [6i, (4bR,8aS,9S)-3,7-dimethoxy-11-methyl-6-oxo-1-(pyrrolidin-1-ylmethyl)-6,8a,9,10-tetrahydro-5H-9,4b-(epiminoethano)phenanthren-4-yl 2-(4-methoxyphenyl)acetate]
other
  melting point: 76 to 79 °C
[4]
  inhibition at 2.5 µM: 13.3 ± 0.21%
  inhibition at 25 µM: 46.9 ± 16.7%
[5]
  inhibition at 2.5 µM: 28.6 ± 9.02%
  inhibition at 25 µM: 38.9 ± 9.65%
[6]
  inhibition at 2.5 µM: 23.5 ± 0.76%
  inhibition at 25 µM: 51.77 ± 0.5%
[7]
  inhibition at 2.5 µM: 11.7 ± 5.99%
  inhibition at 25 µM: 0%
[8]
  inhibition at 2.5 µM: 7.79 ± 6.01%
  inhibition at 25 µM: 29.2 ± 5.29%

## COC1=C[C@@H]2[C@@H]3Cc4c(CN5CCCC5)cc(OC)c(OC(=O)Cc5ccc([N+](=O)[O-])cc5)c4[C@]2(CCN3C)CC1=O [6j, (4bR,8aS,9S)-3,7-dimethoxy-11-methyl-6-oxo-1-(pyrrolidin-1-ylmethyl)-6,8a,9,10-tetrahydro-5H-9,4b-(epiminoethano)phenanthren-4-yl 2-(4-nitrophenyl)acetate]
other
  melting point: 82 to 85 °C
[4]
  inhibition at 2.5 µM: 20.5 ± 6.76%
  inhibition at 25 µM: 56.1 ± 7.28%
[5]
  inhibition at 2.5 µM: 0%
  inhibition at 25 µM: 0.92 ± 1.34%
[6]
  inhibition at 2.5 µM: 15.4 ± 5.6%
  inhibition at 25 µM: 38.7 ± 8.59%
[7]
  inhibition at 2.5 µM: 3.64 ± 6.3%
  inhibition at 25 µM: 1.97 ± 2.75%
[8]
  inhibition at 2.5 µM: 0%
  inhibition at 25 µM: 3.75 ± 0.91%

## COC1=C[C@@H]2[C@@H]3Cc4c(CN5CCCC5)cc(OC)c(OC(=O)Cc5ccccc5OC)c4[C@]2(CCN3C)CC1=O [6k, (4bR,8aS,9S)-3,7-dimethoxy-11-methyl-6-oxo-1-(pyrrolidin-1-ylmethyl)-6,8a,9,10-tetrahydro-5H-9,4b-(epiminoethano)phenanthren-4-yl 2-(2-methoxyphenyl)acetate]
other
  melting point: 180 to 182 °C
[4]
  inhibition at 2.5 µM: 13.9 ± 4.06%
  inhibition at 25 µM: 63.5 ± 10.2%
[5]
  inhibition at 2.5 µM: 3.72 ± 1.8%
  inhibition at 25 µM: 36.9 ± 0.52%
[6]
  inhibition at 2.5 µM: 16.6 ± 2.3%
  inhibition at 25 µM: 51.9 ± 6.36%
[7]
  inhibition at 2.5 µM: 0.75 ± 1.29%
  inhibition at 25 µM: 24.4 ± 11%
[8]
  inhibition at 2.5 µM: 0%
  inhibition at 25 µM: 44.1 ± 0.92%

## COC1=C[C@@H]2[C@@H]3Cc4c(CN5CCCC5)cc(OC)c(OC(=O)Cc5ccccc5F)c4[C@]2(CCN3C)CC1=O [6l, (4bR,8aS,9S)-3,7-dimethoxy-11-methyl-6-oxo-1-(pyrrolidin-1-ylmethyl)-6,8a,9,10-tetrahydro-5H-9,4b-(epiminoethano)phenanthren-4-yl 2-(2-fluorophenyl)acetate]
other
  melting point: 178 to 180 °C
[4]
  inhibition at 2.5 µM: 12.7 ± 2.89%
  inhibition at 25 µM: 68.8 ± 13.3%
[5]
  inhibition at 2.5 µM: 3.91 ± 0.85%
  inhibition at 25 µM: 16.5 ± 0.53%
[6]
  inhibition at 2.5 µM: 13.2 ± 4.88%
  inhibition at 25 µM: 47.1 ± 5.4%
[7]
  inhibition at 2.5 µM: 4.61 ± 4.79%
  inhibition at 25 µM: 9.52 ± 8.26%
[8]
  inhibition at 2.5 µM: 0.61 ± 0.6%
  inhibition at 25 µM: 29 ± 1.88%
